For data set [1], the system named is onion. The data set is described as follows: Mefenpyr safening oxyfluorfen damage in onion (seed treatment). In kind it is in vivo, Allium cepa. As to conditions: variety Diamante, oxyfluorfen (Goal) 7.5 g a.i./ha 9 days after seeding. As to the method: (§1) Onion (Allium cepa var. Brioso) seeds were encrusted in a commercial seed coating machine. Approximately 1 ml of binder was added. Subsequently, a small amount of encrustment powder (X % Naphthalic Anhydride+[100−X]% inert filler material) was added. Binder was added again and this procedure was repeated until all encrustment powder was stuck to the seeds. Seeds were dried subsequently.
(§2) The differently-treated seeds were sown in trays. After 9 days, the seedlings were sprayed with 1.0 g/l ioxynil using an atomizer. A dosage of 3 ml per tray was applied, equalizing 300 g.a.i./hectare. At 3 days after spraying the number of collapsed seedlings was counted.
Onion (Allium cepa var. Diamante) were treated with safener, sown, treated with a herbicide and evaluated as described in Example 5 with the difference that the herbicide is oxyfluorfen and the safener is mefenpyr-diethyl.

Data set [2] relates to leek. Kind of data set: Seed treatment of leek with safener (encrustment method), early post-emergence application of ioxynil. Type of data set: in vivo, allium porrum. As to the method:
Leek (allium porrum var. Parton) seeds were put in an erlenmeyer flask with a spinning stirring magnet. A droplet of binder (glue) was added and distributed evenly amongst the seeds. Subsequently, a small amount of encrustment powder (X % mefenpyr-diethyl+[100−X]% inert filler material) was added and mixed through the seeds using the stirring magnet. A droplet of binder was added again and this procedure was repeated until all encrustment powder was stuck to the seeds. Seeds were dried subsequently.
The differently-treated seeds were sown in trays. After 9 days, the seedlings were sprayed with 4.0 g/l ioxynil using an atomizer. A dosage of 3 ml per tray was applied, equalizing 1200 g.a.i./hectare. At 6 days after spraying the number of collapsed seedlings was counted.

For data set [3], the system named is leek. The data set is described as follows: Seed treatment of leek with safener (seed coating with rotostat system), field, early post-emergence application of ioxynil. In kind it is in vivo, allium porrum. As to the method: (§3) Leek (allium porrum var. Shelton) seeds were coated in a commercial seed coating machine. Gradually, binder solution with X g of mefenpyr-diethyl was added. Seeds were dried subsequently.
The differently-treated seeds were sown in the field using commercial sowing equipment. After 25 days, the seedlings were sprayed with a standard formulation of ioxynil (®Totril) at an application rate of 112 g a.i./ha ioxynil. At 15 days after spraying the number of collapsed seedlings was counted.

The subject of data set [4] is leek. Kind of data set: Mefenpyr safening Prometryn damage in leek (seed treatment). As to conditions: prometryn (Gesagard) 750 g a.i./ha 10 days after seeding. Type of data set: in vivo, allium porrum. As to the method:
as §3
The differently-treated seeds were sown in the field using commercial sowing equipment. […]
Leek seeds (allium porrum, var. Shelton or Parton) were treated with safener, sown, treated with a herbicide and evaluated as described in Example 6 with the difference that the herbicide is prometryn.

Data set [5] deals with leek. Kind of data set: Post-emergence application of herbicide and safener by the tank mix method, leek. Type of data set: in vivo. The source says:
Seeds of leek plants were sown in sandy loam soil in round plastic pots of a diameter of 7 cm and covered with a layer of sandy loam of a thickness of about 0.2 cm. The pots were placed in a greenhouse under favorable growth conditions for until the plants had reached the 2-leaves growth stage. Then, a herbicide or—in a parallel experiment—a tank-mix of the herbicide and a safener (using same basic formulation in each case) was applied to the green parts of the plants and the uncovered part of the soil surface with a spray bar using a water application rate of 300 liters per hectare.
(§4) The pots were placed in a greenhouse under favorable growth conditions. Visual scoring of the herbicidal action was carried out 21 or 40 days after treatment with the herbicide or the tank-mix, respectively. Evaluation was carried out on a percentage basis by comparison with untreated control plants (0%=no noticeable effect compared with the untreated plant, 100%=treated plant dies).

Data set [6] has as its system onion. The data set is described as follows: Post-emergence application of herbicide and safener by the tank mix method, onion. In kind it is in vivo.
From the text: Seeds of onion plants were sown in sandy loam soil in round plastic pots of a diameter of 7 cm and covered with a layer of sandy loam of a thickness of about 0.2 cm. The pots were placed in a greenhouse under favorable growth conditions for until the plants had reached the 2-leaves growth stage. Then, a herbicide or—in a parallel experiment—a tank-mix of the herbicide and a safener (using same basic formulation in each case) was applied to the green parts of the plants and the uncovered part of the soil surface with a spray bar using a water application rate of 300 liters per hectare.
as §4

For data set [7], the system named is onion. The data set is described as follows: Seed treatment of onion with safener (encrustment with rotostat), early post-emergence application of ioxynil. Type of data set: in vivo, Allium cepa. The conditions noted are these: var. Brioso. As to the method:
as §1, §2

The test system of data set [8] is leek. Kind of data set: Oxabetrinil safening ioxynil damage in leek (seed treatment). Type of data set: in vivo, allium porrum.
For data set [9], the system named is leek. The data set is described as follows: Fluxofenim safening ioxynil damage in leek (seed treatment). In kind it is in vivo, allium porrum.
Data set [10] relates to onion. The data set is described as follows: Benoxacor safening bromoxynil damage in onion (seed treatment). In kind it is in vivo, Allium cepa. As to conditions: variety Diamante; safener 0 g a.i./kg seed; bromoxynil-octanoate (Buctril) 25 g a.i./ha 10 days after seeding. The procedure:
as §1
The differently-treated seeds were sown in trays. After 9 days, the seedlings were sprayed with 1.0 g/l ioxynil using an atomizer. A dosage of 3 ml per tray was applied, equalizing 300 g.a.i./hectare. […]
Onion (Allium cepa var. Diamante) were treated with safener, sown, treated with a herbicide and evaluated as described in Example 5 with the difference that the herbicide is bromoxynil-octanoate and the safener is benoxacor.

The source of these data is patent US20070021303A1, “Safening method” (priority 2004, published 2007).

Take `CCOc1cc(Oc2ccc(C(F)(F)F)cc2Cl)ccc1[N+](=O)[O-]` [H6, oxyfluorfen]: the “Damage to seedling (% collapsed) at 5 DAT” value in the data set with onion [1] (safener 0 g a.i./kg seed) is recorded as 83%.

As to `CCOC(=O)C1=NN(c2ccc(Cl)cc2Cl)C(C)(C(=O)OCC)C1` (centres unmarked) [mefenpyr-diethyl, ethyl 1-(2,4-dichlorophenyl)-5-(ethoxycarbonyl)-5-methyl-2-pyrazoline-3-carboxylate], the “damage (collapsed seedlings) versus control-treated seedlings” value in the data set on leek [2] (var. Parton, mefenpyr seed treatment, then ioxynil 1200 g a.i./ha, 6 days after application) is reported as “significantly less damage”. Besides, the results for the “Damage to seedling (% collapsed) at 5 DAT” value in the data set with onion [1] (safener mefenpyr-diethyl 2 g a.i./kg seed), in the data set on onion [1] (safener mefenpyr-diethyl 4 g a.i./kg seed) and with onion [1] (safener mefenpyr-diethyl 8 g a.i./kg seed) were 64%, 49% and 39%, respectively. In the data set on leek [3] (var. Shelton, field, ST3 = seed treatment 2.0 g a.i./kg mefenpyr-diethyl, ioxynil 112 g a.i./ha 25 days after seeding, 15 DAT), the “Damage to leek (in %) 15 DAT” value is reported as “significantly reduced the amount of damage”. The “Damage to seedling (% collapsed) at 6 DAT” value in the data set on leek [4] (variety Parton, safener mefenpyr-diethyl 1 g a.i./kg seed) turned out to be 3%; with leek [4] (variety Parton, safener mefenpyr-diethyl 2 g a.i./kg seed) it was 1%; in the data set with leek [4] (variety Shelton, safener mefenpyr-diethyl 1 g a.i./kg seed) it was 2%; in the data set on leek [4] (variety Shelton, safener mefenpyr-diethyl 2 g a.i./kg seed), 1%.

Take `CON(C)C(=O)Nc1ccc(Cl)c(Cl)c1` [H2, linuron]: in the data set with leek [5] (variety Harston, 250 g a.i./ha, scoring 40 DAT), the “Damage to leek (in %) variety Harston” value came out at 20%. Also, the “Damage to leek (in %) variety Kenton” value with leek [5] (variety Kenton, 250 g a.i./ha, scoring 40 DAT) is 20%. Further, in the data set on onion [6] (variety Blanco Duro, 250 g a.i./ha, scoring 40 DAT), the “Damage to onion (in %) variety Blanco Duro” value came to 100%. In the data set with onion [6] (variety Brioso, 250 g a.i./ha, scoring 40 DAT), the “Damage to onion (in %) variety Brioso” value was 30%.

Regarding `N#Cc1cc(I)c(O)c(I)c1` [H1, 4-hydroxy-3,5-di-iodobenzonitrile], the “Damage to leek (in %) 6 DAT” value in the data set with leek [2] (in vivo) stood at 52%. For the same compound, in the data set on leek [5] (in vivo), the “Damage to leek (in %) variety Harston” value was determined as 40% and the “Damage to leek (in %) variety Kenton” value came to 55%. In addition, in the data set on onion [7] (no safener, ioxynil 300 g a.i./ha sprayed 9 days after seeding, collapsed seedlings 3 DAT), the “Damage to onion (in %) 3 DAT” value is reported as 57%. Further, the “Damage to seedling (% collapsed) at 7 DAT” value in the data set on leek [8] (in vivo) is recorded as 45%. For the same compound, the “Damage to leek (in %) 15 DAT” value with leek [3] (in vivo) worked out at 6%. Moreover, the “Damage to seedling (% collapsed) at 5 DAT” value in the data set with leek [9] (in vivo) turned out to be 16%. Also, in the data set with onion [6] (in vivo), the “Damage to onion (in %) variety Blanco Duro” value is recorded as 55% and the “Damage to onion (in %) variety Brioso” value was 45%.

As to `O=C1OC(=O)c2cccc3cccc1c23` [naphthalic anhydride, 1,8-naphthalenedicarboxylic anhydride], the “damage (collapsed seedlings) versus control-treated seedlings” value in the data set on onion [7] (naphthalic anhydride seed treatment, then ioxynil 300 g a.i./ha, after 3 days) is “significantly less damage”.

Consider `N#C/C(=N\OCC1OCCO1)c1ccccc1` [oxabetrinil, (Z)-1,3-dioxolan-2-ylmethoxyimino(phenyl)-acetonitrile], for which the “Damage to seedling (% collapsed) at 7 DAT” value is given as 25% in the data set with leek [8] (variety Shelton, safener oxabetrinil 1 g a.i./kg seed, ioxynil (Totril) 112 g a.i./ha 10 days after seeding); 27% in the data set with leek [8] (variety Shelton, safener oxabetrinil 2 g a.i./kg seed, ioxynil (Totril) 112 g a.i./ha 10 days after seeding); 13% in the data set on leek [8] (variety Shelton, safener oxabetrinil 4 g a.i./kg seed, ioxynil (Totril) 112 g a.i./ha 10 days after seeding).

With `CCCCCCCC(=O)Oc1c(Br)cc(C#N)cc1Br` [H7, bromoxynil-octanoate], the “Damage to seedling (% collapsed) at 5 DAT” value with onion [10] worked out at 19%.

On to `FC(F)(F)C(=NOCC1OCCO1)c1ccc(Cl)cc1` [fluxofenim, 1-(4-chlorophenyl)-2,2,2-trifluoro-1-ethanone O-(1,3-dioxolan-2-ylmethyl)oxime], for which the “Damage to seedling (% collapsed) at 5 DAT” value is 10% with leek [9] (variety Shelton, safener fluxofenim 1 g a.i./kg seed, ioxynil (Totril) 112 g a.i./ha 10 days after seeding) and 6% in the data set on leek [9] (variety Shelton, safener fluxofenim 2 g a.i./kg seed, ioxynil (Totril) 112 g a.i./ha 10 days after seeding).

Take `COc1cc(OC)nc(NC(=O)NS(=O)(=O)c2cc(NC=O)ccc2C(=O)N(C)C)n1` [H4, N,N-dimethyl-2-[3-(4,6-dimethoxypyrimidin-2-yl)ureidosulfonyl]-4-formylaminobenzamide]: in the data set with leek [5] (in vivo), the “Damage to leek (in %) variety Harston” value is given as 50% and the “Damage to leek (in %) variety Kenton” value is reported as 50%. In addition, in the data set with onion [6] (in vivo), the “Damage to onion (in %) variety Blanco Duro” value was 10% and the “Damage to onion (in %) variety Brioso” value stood at 30%.

With `COC(=O)c1ccc(CNS(C)(=O)=O)cc1S(=O)(=O)NC(=O)Nc1nc(OC)cc(OC)n1` [H3, methyl 2-[3-(4,6-dimethoxypyrimidin-2-yl)ureidosulfonyl]-4-methanesulfonylaminomethylbenzoate], the “Damage to leek (in %) variety Harston” value in the data set on leek [5] (variety Harston, 50 g a.i./ha, scoring 40 DAT) came out at 50%. In the data set with leek [5] (variety Kenton, 50 g a.i./ha, scoring 40 DAT), the “Damage to leek (in %) variety Kenton” value came to 45%. Besides, in the data set on onion [6] (in vivo), the “Damage to onion (in %) variety Blanco Duro” value stood at 70% and the “Damage to onion (in %) variety Brioso” value was determined as 50%.
